{"source": "patent US20110003760A1", "about": "“ABNORMAL PROTEIN REMOVING METHOD” (priority 2005, published 2011)", "tested_on": "carbonylated type I collagen in three-dimensional human skin model", "test": "Carbonylated collagen in three-dimensional human skin model, type I collagen immunoprecipitation and Western blotting", "type": "cell-based", "conditions": "silybin 3 μM, Bletilla striata extract 0.1%, soybean saponin 0.0005%, alone or combined; for Relative photographic density (carbonylated collagen): Table 8, non-reduced protein, untreated without UV = 100%", "procedure": "Three-dimensional human skin models are widely used in safety evaluation and effectiveness evaluation as a simulated model of human skin. In this test, TESTSKIN (LSE-high) (Toyobo Co., Ltd.) was used as a three-dimensional human skin model.\nA culture medium was added to the outer well of TESTSKIN (LSE-high) and cultured for 24 hours. UVA and UVB were irradiated at 10 J/cm^2 and 100 mJ/cm^2, respectively. UVB was irradiated for 2 minutes at a UV intensity of […] using FL20S-E-30/DMR (Clinical Supply Co., Ltd.) to achieve a total irradiation dose of 100 mJ/cm^2. UV intensity was measured using a UV MONITOR MS-211-I (Eiko Instruments Co., Ltd.).\nThereafter, the culture solution was changed and each agent was added by 100 μl onto the tissues in the assay ring, after which the medium was cultured for 36 hours. […]\nUsing the protein derived from the three-dimensional human skin model extract treated with each agent, type I collagen was immunoprecipitated by means of a known method (Mizushima, et al., Jpn. J. Cancer Res. Vol. 93, pp. 652-659, 2002). […] The immunoprecipitate was washed three times using a STEN buffer solution, after which 50 μl of a SDS-PAGE sample buffer solution was added and the amount of carbonylated protein and amount of type I collagen were measured by means of Western blotting.\nFrom the results shown in FIG. 7 and Table 7, it is clear that using silybin in combination with Bletilla striata extract, or using silybin in combination with soybean saponin, synergistically suppresses carbonylated protein. Next, whether or not carbonylation of type I collagen would be suppressed by using silybin in combination with Bletilla striata extract, or using silybin in combination with soybean saponin, was evaluated to check the possibility of using such combinations to remove oxidized collagen that accumulates with age to cause lines, sagging, dull complexion and other signs of aging skin. […]", "data": [{"smiles": "COc1cc(C2Oc3cc([C@H]4Oc5cc(O)cc(O)c5C(=O)[C@@H]4O)ccc3OC2CO)ccc1O", "note": "(stereo partly drawn) [Silybin, silybin]", "values": [{"measurement": "Relative photographic density (carbonylated collagen)", "setting": "head printed UV (−)", "result": 430, "unit": "%"}, {"measurement": "Relative photographic density (carbonylated collagen)", "setting": "first column UV (−)", "result": 72, "unit": "%"}, {"measurement": "amount of carbonylated collagen compared to the sample not given any treatment under UV irradiation", "setting": "non-reduced protein, UV irradiation", "result": 72, "unit": "%"}]}]}
